Test results from PMC9049205 (RSC Advances, 2020).
Where two headings read alike, the source gives them in different places.

Columns and labels:
[1] = system: influenza virus (A/PR/8/34 H1N1 strain); assay: organism not typed; assay type: cell-based, Influenza A/PR/8/34 (H1N1); conditions: for EC50: 48 h, read-out: Anti-influenza virus activity EC50
avian influenza A H5N1 = conditions: mouse, in vivo; cited from earlier work
influenza A virus = conditions: in vitro; cited from earlier work

## Cc1onc(-c2ccccc2)c1C(=O)N1CCC(c2ccc([N+](=O)[O-])cc2Cl)CC1 [Compound 1a, (4-(2-Chloro-4-nitrophenyl)piperidin-1-yl)(5-methyl-3-phenylisoxazol-4yl)methanone]
[1]
  SI (selectivity index: CC50/EC50): 22.02
  anti-influenza activity (in words): excellent activity than ribavirin
[1]; MDCK
  EC50: 0.898 ± 0.004 µM

## COc1ccccc1-c1noc(C)c1C(=O)N1CCC(c2ccc([N+](=O)[O-])cc2Cl)CC1 [Compound 1b, (4-(2-Chloro-4-nitrophenyl)piperidin-1-yl)(3-(2-methoxyphenyl)-5-methylisoxazol-4-yl)methanone]
[1]
  SI (selectivity index: CC50/EC50): 272.93
  anti-influenza activity (in words): excellent activity than ribavirin
[1]; MDCK
  EC50: 0.253 ± 0.001 µM

## CSc1ccccc1-c1noc(C)c1C(=O)N1CCC(c2ccc([N+](=O)[O-])cc2Cl)CC1 [Compound 1c, (4-(2-Chloro-4-nitrophenyl)piperidin-1-yl)(5-methyl-3-(2-(methylthio)phenyl)isoxazol-4-yl)methanone]
[1]
  SI (selectivity index: CC50/EC50): 398.41
  anti-influenza activity (in words): excellent activity than ribavirin
[1]; MDCK
  EC50: 0.502 ± 0.002 µM

## Cc1onc(-c2cccc(Cl)c2Cl)c1C(=O)N1CCC(c2ccc([N+](=O)[O-])cc2Cl)CC1 [Compound 1d, (4-(2-Chloro-4-nitrophenyl)piperidin-1-yl)(3-(2,3-dichlorophenyl)-5-methylisoxazol-4-yl)methanone]
[1]
  anti-influenza activity (in words): moderate activity
[1]; MDCK
  EC50: 21.572 ± 0.015 µM

## COc1nc2ccccc2cc1-c1noc(C)c1C(=O)N1CCC(c2ccc([N+](=O)[O-])cc2Cl)CC1 [Compound 1e, (4-(2-Chloro-4-nitrophenyl)piperidin-1-yl)(3-(2-methoxyquinolin-3-yl)-5-methylisoxazol-4-yl)methanone]
[1]
  SI (selectivity index: CC50/EC50): 2.52
  anti-influenza activity (in words): moderate activity
[1]; MDCK
  EC50: 9.905 ± 0.01 µM

## COc1ccc(-c2noc(C)c2C(=O)N2CCC(c3ccc([N+](=O)[O-])cc3Cl)CC2)c(OC)c1 [Compound 1f, (4-(2-Chloro-4-nitrophenyl)piperidin-1-yl)(3-(2,4-dimethoxyphenyl)-5-methylisoxazol-4-yl)methanone]
[1]
  SI (selectivity index: CC50/EC50): 13.68
  anti-influenza activity (in words): excellent activity than ribavirin
[1]; MDCK
  EC50: 2.036 ± 0.009 µM

## Cc1onc(-c2ccccc2F)c1C(=O)N1CCC(c2ccc([N+](=O)[O-])cc2Cl)CC1 [Compound 1g, (4-(2-Chloro-4-nitrophenyl)piperidin-1-yl)(3-(2-fluorophenyl)-5-methylisoxazol-4-yl)methanone]
[1]
  SI (selectivity index: CC50/EC50): 12.27
  anti-influenza activity (in words): excellent activity than ribavirin
[1]; MDCK
  EC50: 1.356 ± 0.008 µM

## Cc1onc(-c2ccco2)c1C(=O)N1CCC(c2ccc([N+](=O)[O-])cc2Cl)CC1 [Compound 1h, (4-(2-Chloro-4-nitrophenyl)piperidin-1-yl)(3-(furan-2-yl)-5-methylisoxazol-4-yl)methanone]
[1]
  anti-influenza activity (in words): moderate activity
[1]; MDCK
  EC50: 16.226 ± 0.012 µM

## NC(=O)c1ncn([C@@H]2O[C@H](CO)[C@@H](O)[C@H]2O)n1 [Ribavirin, reference compound]
[1]
  SI (selectivity index: CC50/EC50): 6.37
[1]; MDCK
  EC50: 9.891 ± 0.06 µM

## Cc1onc(-c2ccccc2)c1C(=O)N1CCN(c2ccc([N+](=O)[O-])cc2Cl)CC1 [nucleozin, Nucleozin]
Avian influenza A H5N1
  protection of mice challenged with lethal doses of avian influenza A H5N1: protected mice
Influenza A virus
  median effective concentration (EC50), influenza A virus replication: nanomolar

## (4-(2-Chloro-4-nitrophenyl)piperidin-1-yl)(3-methyl-5-styrylisoxazol-4-yl)methanone [Compound 1i]
[1]
  anti-influenza activity (in words): moderate activity
  EC50: 34.483 ± 0.014 µM

## (5-Benzyl-3-methylisoxazol-4-yl)(4-(2-chloro-4-nitrophenyl) piperidin-1-yl)methanone [Compound 1j]
[1]
  anti-influenza activity (in words): moderate activity
  EC50: 19.41 ± 0.012 µM
